How the values were obtained:
[1] = format: physicochemical
From the text: Certain components of the formulation tend to be difficult to solubilize in conventional formulations. […] For topical compositions containing from about 0.05% by weight to about 0.1% by weight phosphatidyl serine and/or from about 0.05% by weight to about 0.1% by weight oleuropein, caprylyl methicone in an amount of from about 0.5% by weight to about 1% by weight of caprylyl methicone can solubilize these components in an anhydrous formulation.
In Formula 8B, the amount of palmitoyl tripeptide was increased to 3%, and phosphatidylserine (lipoid PS P 70) was added, along with oleuropein 80% at 0.025%. […] In Formula 9B, the concentration of heptyl undecylenate was lowered to 2.5%, caprylyl methicone was added to solubilize the Lipoind PS P 70, which was increased to 0.05%, and oleuropein 80% was increased to 0.05%. The viscosity for Formula 9B was approximately 5000 cPs.

MMP-2 = conditions: wound chamber, vs control, cited from earlier work
VEGF = conditions: pg VEGF/ng DNA as a function of GHK ng/mL; FIG. 11; cited from earlier work

Row | solubility in heptyl undecylenate [1] | Compound | gelatinolytic activity (peaks area/μg protein), MMP-2 (MMP-2; from day 3, peaking at days 18-22, FIG. 9) | gelatinolytic activity (peaks area/μg protein) (MMP-2; from day 12, peaking at days 18-22, FIG. 10) | secretion of VEGF (VEGF)
1 | poor solubility | C/C=C1/[C@H](O[C@@H]2O[C@H](CO)[C@@H](O)[C@H](O)[C@H]2O)OC=C(C(=O)OC)[C@H]1CC(=O)OCCc1ccc(O)c(O)c1 [oleuropein] | – | – | –
2 | – | glycine-histidine-lysine [GHK] | far greater degree than control | far greater degree than control | dose-dependently increases
3 | poor solubility | phosphatidylserine [Lipoid PS P70] | – | – | –
